Values of other authors in patent publication US20120058205A1, “COMPOSITIONS AND TREATMENT REGIMES FOR REDUCING INFLAMMATION, END-ORGAN INJURY, AND/OR SYSTEMIC ENDOTOXEMIA” (priority 2009, published 2012).
Each block holds one molecule with its values, some of them ahead of it.

Assays:
[1] = animal model; also printed as ≦1,000 nmol/L
[2] = consistently above; also printed as 500 nmol/L; possible hypercalcemia and hyperphosphatemia
aldosterone = settings: administration to diabetic patients

Structure (SMILES): C=C1/C(=C\C=C2/CCC[C@]3(C)[C@@H]([C@H](C)CCCC(C)(C)O)CC[C@@H]23)C[C@@H](O)C[C@@H]1O [1,25(OH)2D, 1,25-dihydroxyvitamin D]
- half-life (circulating): 15 h

- circulating half-life (in vivo): 360 h
Structure (SMILES): C=C1CC[C@H](O)C/C1=C/C=C1\CCC[C@]2(C)[C@@H]([C@H](C)CCCC(C)(C)O)CC[C@@H]12 [25(OH)D, 25-hydroxyvitamin D]
- concentrations that demonstrated no toxicity [1]: ≤ 400 ng/mL
- serum concentration considered potentially toxic [2]: above 200 ng/mL

Structure (SMILES): CC(=O)S[C@@H]1CC2=CC(=O)CC[C@]2(C)[C@H]2CC[C@@]3(C)[C@@H](CC[C@@]34CCC(=O)O4)[C@H]12 [spironolactone]
- increase of aldosterone levels (aldosterone): ≥ 400%
